{
  "source": "PubChem BioAssay AID330",
  "about": "(DTP/NCI, 2004)",
  "tested_on": "P388 leukemia ip, CD2F1 mice, survival T/C",
  "assay": "NCI In Vivo Anticancer Drug Screen. Data for tumor model P388 Leukemia (intraperitoneal) in CD2F1 (CDF1) mice",
  "settings": "endpoint: median survival time, higher = longer survival",
  "procedure,_shortened": "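Mice carrying the transplanted tumor received test compound or vehicle. Survival was recorded in each group, and the value is the treated-group measurement divided by that of the vehicle-treated control group.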",
  "key": {"[1]": {"settings": "dose: 50.0 mg/kg/injection, schedule: Q01DX009 (ip), vehicle: saline with Tween-80"}},
  "note": "Inconclusive results and toxic doses are left out.",
  "data": [
    {"molecule": "O=C(OCCOCCO)c1ccccc1-c1c2cc(I)c(=O)c(I)c-2oc2c(I)c(O)c(I)cc12", "values": [
      {"measurement": "T/C", "setting": "dose: 60.0 mg/kg/injection, schedule: Q01DX005 (ip), vehicle: saline", "value": "94 % of control"},
      {"measurement": "T/C", "setting": "dose: 120.0 mg/kg/injection, schedule: Q01DX005 (ip), vehicle: saline", "value": "91 % of control"},
      {"measurement": "T/C", "setting": "dose: 240.0 mg/kg/injection, schedule: Q01DX005 (ip), vehicle: saline", "value": "92 % of control"}
    ]},
    {"molecule": "CCCCCCCCC#CCCCCCCCCCCCC(=O)O", "values": [
      {"measurement": "T/C", "setting": "[1]", "value": "88 % of control"},
      {"measurement": "T/C", "setting": "dose: 200.0 mg/kg/injection, schedule: Q01DX009 (ip), vehicle: saline with Tween-80", "value": "90 % of control"}
    ]},
    {"molecule": "C=C(C[N+](C)(C)C)c1ccc([N+](=O)[O-])cc1", "values": [
      {"measurement": "T/C", "setting": "dose: 50.0 mg/kg/injection, schedule: Q01DX005 (ip), vehicle: Klucel (hydroxypropylcellulose) (HPC)", "value": "102 % of control"}
    ]},
    {"molecule": "C=[CH][Sn]([CH]=C)([CH2]C)[CH2]C", "values": [
      {"measurement": "T/C", "setting": "dose: 50.0 mg/kg/injection, schedule: Q01DX005 (ip), vehicle: saline", "value": "102 % of control"},
      {"measurement": "T/C", "setting": "dose: 100.0 mg/kg/injection, schedule: Q01DX005 (ip), vehicle: saline", "value": "104 % of control"},
      {"measurement": "T/C", "setting": "dose: 200.0 mg/kg/injection, schedule: Q01DX005 (ip), vehicle: saline", "value": "114 % of control"}
    ]},
    {"molecule": "O=C1c2cccc3cccc(c23)C(=O)N1CCNCCN1C(=O)c2cccc3cccc(c23)C1=O", "values": [
      {"measurement": "T/C", "setting": "dose: 60.0 mg/kg/injection, schedule: Q01DX005 (ip), vehicle: saline with Tween-80", "value": "91 % of control"},
      {"measurement": "T/C", "setting": "dose: 240.0 mg/kg/injection, schedule: Q01DX005 (ip), vehicle: saline with Tween-80", "value": "88 % of control"}
    ]},
    {"molecule": "C[Si](C)(C)c1cc[c]([Sn]([CH3])([CH3])[CH3])cc1", "values": [
      {"measurement": "T/C", "setting": "dose: 50.0 mg/kg/injection, schedule: Q01DX009 (ip), vehicle: saline", "value": "105 % of control"},
      {"measurement": "T/C", "setting": "dose: 100.0 mg/kg/injection, schedule: Q01DX009 (ip), vehicle: saline", "value": "101 % of control"},
      {"measurement": "T/C", "setting": "dose: 200.0 mg/kg/injection, schedule: Q01DX009 (ip), vehicle: saline", "value": "93 % of control"}
    ]},
    {"molecule": "O=C(c1ccccc1)c1c(-c2ccccc2)c(C(=O)c2ccccc2)n2ccccc12", "values": [
      {"measurement": "T/C", "setting": "dose: 50.0 mg/kg/injection, schedule: Q01DX009 (ip), vehicle: Klucel (hydroxypropylcellulose) (HPC)", "value": "108 % of control"},
      {"measurement": "T/C", "setting": "dose: 100.0 mg/kg/injection, schedule: Q01DX009 (ip), vehicle: Klucel (hydroxypropylcellulose) (HPC)", "value": "105 % of control"},
      {"measurement": "T/C", "setting": "dose: 200.0 mg/kg/injection, schedule: Q01DX009 (ip), vehicle: Klucel (hydroxypropylcellulose) (HPC)", "value": "93 % of control"}
    ]},
    {"molecule": "Cn1cnc2cc(N3CCOCC3)c(N)cc2c1=O", "values": [
      {"measurement": "T/C", "setting": "dose: 100.0 mg/kg/injection, schedule: Q04DX002 (ip), vehicle: Klucel (hydroxypropylcellulose) (HPC)", "value": "106 % of control"},
      {"measurement": "T/C", "setting": "dose: 200.0 mg/kg/injection, schedule: Q04DX002 (ip), vehicle: Klucel (hydroxypropylcellulose) (HPC)", "value": "102 % of control"},
      {"measurement": "T/C", "setting": "dose: 400.0 mg/kg/injection, schedule: Q04DX002 (ip), vehicle: Klucel (hydroxypropylcellulose) (HPC)", "value": "102 % of control"}
    ]},
    {"molecule": "O=C(CCl)n1ccc(=O)n(C(=O)CCl)c1=O", "values": [
      {"measurement": "T/C", "setting": "dose: 100.0 mg/kg/injection, schedule: Q04DX002 (ip), vehicle: saline", "value": "113 % of control"},
      {"measurement": "T/C", "setting": "dose: 200.0 mg/kg/injection, schedule: Q04DX002 (ip), vehicle: saline", "value": "100 % of control"},
      {"measurement": "T/C", "setting": "dose: 400.0 mg/kg/injection, schedule: Q04DX002 (ip), vehicle: saline", "value": "103 % of control"}
    ]},
    {"molecule": "CN(C)CC[CH2][Sn]([CH2]CCN(C)C)([CH2]CCN(C)C)[CH2]CCN(C)C", "values": [
      {"measurement": "T/C", "setting": "[1]", "value": "105 % of control"},
      {"measurement": "T/C", "setting": "dose: 100.0 mg/kg/injection, schedule: Q01DX009 (ip), vehicle: saline with Tween-80", "value": "97 % of control"}
    ]}
  ]
}
